Results: ChEMBL document CHEMBL4616634, “4β-Hydroxywithanolide E from Goldenberry (Whole Fruits of Physalis peruviana L.) as a Promising Agent against Chronic Obstructive Pulmonary Disease” (J Nat Prod, 2020)
Active and inactive are the calls of the source.

Assays:
Type in all cases: functional, organism-based
Mus musculus [1] = assay: Antiinflammatory activity in C57BL/6 mouse model of CS-induced pulmonary injury assessed as reduction in thickening of the alveolar septa in lungs at 1 mg/kg, ip for 5 days by hematoxylin and eosin staining based fluorescence microscopic analysis
Mus musculus [2] = assay: Antiinflammatory activity in C57BL/6 mouse model of CS-induced pulmonary injury assessed as reduction in hyperplasia of pneumo-cytes in lungs at 1 mg/kg, […] by hematoxylin and eosin staining based fluorescence microscopic analysis
Mus musculus [3] = assay: Antiinflammatory activity in C57BL/6 mouse model of CS-induced pulmonary injury assessed as reduction in distinct infiltration of leukocytes in lungs at 1 mg/kg, ip for 5 days by hematoxylin and eosin staining based fluorescence microscopic analysis
Mus musculus [4] = assay: Antiinflammatory activity in C57BL/6 mouse model of CS-induced pulmonary injury assessed as reduction in goblet cell hyperplasia in peribronchial in lungs at 1 mg/kg, ip for 5 days by hematoxylin and eosin staining based fluorescence microscopic analysis
Mus musculus [5] = assay: Antiinflammatory activity in C57BL/6 mouse model of CS-induced pulmonary injury assessed as reduction in goblet cell hyperplasia in perivascular areas in lungs at 1 mg/kg, ip for 5 days by hematoxylin and eosin staining based fluorescence microscopic analysis
Mus musculus [6] = assay: Antiinflammatory activity in C57BL/6 mouse model of CS-induced pulmonary injury assessed as reduction in 8-oxo-dG in lungs at 1 mg/kg, ip for 5 days by ELISA
Mus musculus [7] = assay: Antiinflammatory activity in C57BL/6 mouse model of CS-induced pulmonary injury assessed as reduction in thickening of the alveolar septa in lungs at 50 mg/kg, ip for 5 days by hematoxylin and eosin staining based fluorescence microscopic analysis
Mus musculus [8] = assay: Antiinflammatory activity in C57BL/6 mouse model of CS-induced pulmonary injury assessed as reduction in hyperplasia of pneumo-cytes in lungs at 50 mg/kg, ip for 5 days by hematoxylin and eosin staining based fluorescence microscopic analysis
Mus musculus [9] = assay: Antiinflammatory activity in C57BL/6 mouse model of CS-induced pulmonary injury assessed as reduction in distinct infiltration of leukocytes in lungs at 50 mg/kg, ip for 5 days by hematoxylin and eosin staining based fluorescence microscopic analysis
Mus musculus [10] = assay: Antiinflammatory activity in C57BL/6 mouse model of CS-induced pulmonary injury assessed as reduction in goblet cell hyperplasia in peribronchial in lungs at 50 mg/kg, ip for 5 days by hematoxylin and eosin staining based fluorescence microscopic analysis
Mus musculus [11] = assay: Antiinflammatory activity in C57BL/6 mouse model of CS-induced pulmonary injury assessed as reduction in goblet cell hyperplasia in perivascular areas in lungs at 50 mg/kg, ip for 5 days by hematoxylin and eosin staining based fluorescence microscopic analysis
Mus musculus [12] = assay: Antiinflammatory activity in C57BL/6 mouse model of CS-induced pulmonary injury assessed as reduction in 8-oxo-dG in lungs at 50 mg/kg, ip for 5 days by ELISA

Measured: Activity

C[C@@H]1C[C@H]2[C@@H]3CCC4=CC(=O)C=C[C@]4(C)[C@@]3(F)[C@@H](O)C[C@]2(C)[C@@]1(O)C(=O)CO
active: Mus musculus [1] | Mus musculus [2] | Mus musculus [3] | Mus musculus [4] | Mus musculus [5] | Mus musculus [6]

CC(C)(C)c1cc(O)ccc1O
active: Mus musculus [7] | Mus musculus [8] | Mus musculus [9] | Mus musculus [10] | Mus musculus [11] | Mus musculus [12]
